Test results published in patent US20230174507A1, “IMIDAZOLE 3-OXIDE DERIVATIVE BASED ACSS2 INHIBITORS AND METHODS OF USE THEREOF” (METABOMED LTD., priority 2020, published 2023).
pIC50: −log10 of the molar value.

Tests used:
[1] = molecular target: T1, ACSS2 in MDA-MB-468 cells (Homo sapiens, UniProt Q9NR19); test: Cellular fatty-acid IC50: 13C-acetate incorporation into fatty acids (palmitate), LC-MS; format: cell-based; details: hypoxic conditions (1% O2), 75% charcoal stripped serum, 5 hours, 13C-acetate into palmitate, read-out: Cellular Fatty-acid IC50 High Serum MDA468
T1 construct: endogenous in cells; host or cells: MDA-MB-468 cells, hypoxia (1% O2)
Experimental: Cellular Fatty-Acid IC50 Determination:
The cellular activity of ACSS2 was measured in MDA-MB-468 cells under hypoxic conditions by tracing the incorporation of labelled carbons from ^13C-acetate into newly synthesized fatty acids. The assay was performed using 75% charcoal stripped serum (high serum conditions).
MDA-MB-468 cells were seeded in 12-well plates (0.35×10^6 cells per well) in plating medium (Dulbecco's Modified Eagle Medium containing 25 mM D-glucose, 1 mM sodium pyruvate, 10% v/v fetal bovine serum, and 2 mM glutamine) and incubated for 24 hours under hypoxic conditions (1% O2).
The next day, tracing medium containing DMEM (01-057-1A) containing 75% charcoal stripped serum (Biological industries 04-201-1A), 3.5 μg/mL Biotin (Sigma-Aldrich B4639), 1 mM Pyruvate, 5.5 mM Glucose, 0.65 mM Glutamine and 0.5 mM ^13C-Acetate (Sigma-Aldrich #282014) with serial dilutions of the compounds in the range of 0.000512-1000 nM were prepared. The plating medium was replaced with 1 mL tracing medium plus compounds and the cells were incubated for 5 hours under hypoxic conditions (1% O2). Plating medium in control wells (without cells or without compounds) was replaced with 1 mL tracing medium containing 0.01% v/v DMSO.
The level of ^13C-acetate incorporation into fatty acids (palmitate) was measured by LC-MS analysis and IC50 as described below:
Sample Preparation for LC-MS
• a) Cells were washed twice with cold phosphate buffered saline (PBS), scraped into 0.5 mL EDTA pH 8.0, and transferred into 1.1 mL V-shaped HPLC glass tubes. • b) The cell suspensions were centrifuged for 5 minutes at 400×g, 4° C. and the supernatants were removed. • c) Cell pellets were frozen at −80° C.
• d) Cell pellets were resuspended in 0.2 mL of 80% v/v ethanol in water containing 0.02 M NaOH in 1.1 ml glass (v-bottom) HPLC vials. • e) The vials were closed tight and incubated at 66° C. for 60 minutes. • f) Acetonitrile containing 2% v/v formic acid (150 μL) was added to each vial and the mixtures were transferred to Eppendorf tubes for centrifugation at 17 000×g for 20 minutes. • g) Supernatants were transferred to LC-MS vials.
The relative palmitate concentration was measured by LC-MS in reconstructed selected ion monitoring (RSIM) mode and negative ion mode. Samples were analyzed on a Phenomenex Kinetex 2.6 μm XB-C18 150×2.1 mm column at 45° C. (0.4 mL/minute flow rate) using: • a) A gradient from 15% A/85% C to 100% C for 0 to 2 minutes (A: water containing 5% v/v acetonitrile, 10 mM ammonium acetate, and 10 mM acetic acid; C: a mixture of 50% v/v acetonitrile and 50% v/v methanol). • b) Isocratic flow (100% C) for 2 to 5 minutes. • c) Equilibration in isocratic conditions (15% A/85% C) for 5 to 8 minutes.
Palmitate was eluted at approximately 3.4 minutes.
The percent inhibition was calculated relative to the sample without compound and after background deduction. IC50 values were calculated using non-linear regression curve fit analysis with 0% and 100% constraints (CDD Vault, Collaborative Drug Discovery, Inc. or GraphPad Prism).
The inhibitory activities of each compound against ACSS2 in MDA-MB-468 cells under high serum conditions, as determined by ^13C-acetate incorporation into fatty acids (palmitate), are presented in Table 2.

human ACSS2 protein = molecular target: T2, human ACSS2 protein (Homo sapiens, UniProt Q9NR19); test: ACSS2 cell-free activity assay (pyrophosphatase-coupled, Biomol green); details: 10 nM human ACSS2, 90 minutes at 37 C, absorbance at 620 nm; read-out: ACSS2 Biochemical IC50
T2 construct: purchased OriGene Technologies, Inc
How it was run: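 10 nM human ACSS2 incubated 90 min at 37 C with compound, 300 μM ATP, 10 μM CoA, 5 mM NaAc in pH 7.5 Hepes buffer with 0.5 U/ml pyrophosphatase. Released phosphate detected with Biomol Green at 620 nm; IC50 by non-linear regression constrained to 0% and 100%.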

human ACSS1 protein = molecular target: T3, human ACSS1 protein (Homo sapiens, UniProt Q9NUB1); test: ACSS1 cell-free activity assay (pyrophosphatase-coupled, Biomol green); format: biochemical; details: 5 nM human ACSS1, 30 minutes at room temperature, absorbance at 620 nm
T3 construct: purchased MyBioSource
T3 sequence (Q9NUB1 38-689): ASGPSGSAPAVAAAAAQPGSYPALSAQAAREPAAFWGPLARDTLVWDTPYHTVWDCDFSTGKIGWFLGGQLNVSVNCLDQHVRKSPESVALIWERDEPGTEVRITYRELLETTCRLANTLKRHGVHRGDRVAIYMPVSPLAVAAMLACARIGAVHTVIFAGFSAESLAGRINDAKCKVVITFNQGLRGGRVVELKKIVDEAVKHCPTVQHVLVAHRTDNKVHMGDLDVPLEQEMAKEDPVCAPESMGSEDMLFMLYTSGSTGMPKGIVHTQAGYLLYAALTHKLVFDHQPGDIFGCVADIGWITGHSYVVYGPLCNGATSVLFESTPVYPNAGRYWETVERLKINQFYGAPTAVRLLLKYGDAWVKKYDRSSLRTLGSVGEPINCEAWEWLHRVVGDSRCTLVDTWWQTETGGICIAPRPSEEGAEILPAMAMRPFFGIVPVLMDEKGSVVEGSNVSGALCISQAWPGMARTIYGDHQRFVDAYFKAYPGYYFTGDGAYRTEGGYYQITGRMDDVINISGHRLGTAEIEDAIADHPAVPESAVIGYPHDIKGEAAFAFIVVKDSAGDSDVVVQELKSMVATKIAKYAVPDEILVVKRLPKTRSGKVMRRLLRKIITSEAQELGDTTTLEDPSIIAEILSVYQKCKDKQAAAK
How it was run: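 5 nM human ACSS1 incubated 30 min at RT with compound in pH 7.5 Hepes buffer with 15 μM CoA, 5 mM acetate, 300 μM ATP, 2 mM MgCl2 and pyrophosphatase. Released phosphate detected with Biomol Green (30 min), absorbance 620 nm. IC50 from constrained non-linear regression.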

T1 sequence (Q9NR19 whole entry): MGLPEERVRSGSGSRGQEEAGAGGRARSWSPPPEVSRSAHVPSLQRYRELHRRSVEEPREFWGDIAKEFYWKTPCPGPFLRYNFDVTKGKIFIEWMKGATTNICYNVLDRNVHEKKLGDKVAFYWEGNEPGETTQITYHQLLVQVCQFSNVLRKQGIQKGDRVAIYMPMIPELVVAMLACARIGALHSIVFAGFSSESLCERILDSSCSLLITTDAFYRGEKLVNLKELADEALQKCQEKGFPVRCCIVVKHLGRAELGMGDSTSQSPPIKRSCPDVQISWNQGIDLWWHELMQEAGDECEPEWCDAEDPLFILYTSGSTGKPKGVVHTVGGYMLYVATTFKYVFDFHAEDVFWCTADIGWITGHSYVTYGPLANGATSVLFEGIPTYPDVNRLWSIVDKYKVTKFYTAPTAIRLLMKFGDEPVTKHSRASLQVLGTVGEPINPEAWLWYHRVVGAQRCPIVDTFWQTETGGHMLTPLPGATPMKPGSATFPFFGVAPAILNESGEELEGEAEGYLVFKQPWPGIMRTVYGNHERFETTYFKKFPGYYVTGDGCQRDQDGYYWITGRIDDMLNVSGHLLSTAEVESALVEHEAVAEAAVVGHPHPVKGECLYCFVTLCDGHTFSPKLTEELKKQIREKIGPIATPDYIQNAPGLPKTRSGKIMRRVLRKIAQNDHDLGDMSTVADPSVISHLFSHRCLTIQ
T2 sequence (Q9NR19 whole entry): as above

| SMILES | pIC50 [1] | pIC50 (human ACSS2 protein) | ACSS1 Biochemical IC50 (nM) (human ACSS1 protein) |
| --- | --- | --- | --- |
| CCC(F)(F)c1cccc(NC(=O)c2c(C)[nH]c(-c3cc(-c4c(C)cccc4C)c(OC)cc3N)[n+]2[O-])c1 [Compound 124] | < 7.30 | > 9.00 | Inactive |
| Cc1cccc(C)c1-c1cc(F)cc(-c2[nH]c(C)c(C(=O)Nc3cccc(C(F)(F)C4CC4)c3)[n+]2[O-])c1 [Compound 129, 4-((3-(cyclopropyldifluoromethyl)phenyl)carbamoyl)-2-(5-fluoro-2′,6′-dimethyl-[1,1′-biphenyl]-3-yl)-5-methyl-1H-imidazole 3-oxide] | < 7.30 | > 9.00 | Inactive |
| Cc1cccc(C)c1-c1cc(C#N)cc(-c2[nH]c(C)c(C(=O)Nc3cccc(C(F)(F)C4CC4)c3)[n+]2[O-])c1 [Compound 135, 2-(5-cyano-2′,6′-dimethyl-[1,1′-biphenyl]-3-yl)-4-((3-(cyclopropyldifluoromethyl)phenyl)carbamoyl)-5-methyl-1H-imidazole 3-oxide] | 7.30 to 7.70 | > 9.00 | Inactive |
| COc1cc(F)c(-c2[nH]c(C)c(C(=O)Nc3cccc(C(F)(F)C4CC4)c3)[n+]2[O-])cc1-c1c(C)cccc1C [Compound 137] | < 7.30 | > 9.00 | Inactive |
| CC(=O)c1cc(-c2c(C)cccc2C)cc(-c2[nH]c(C)c(C(=O)Nc3cccc(C(F)(F)C4CC4)c3)[n+]2[O-])c1 [Compound 142, 2-(5-acetyl-2′,6′-dimethyl-[1,1′-biphenyl]-3-yl)-4-((3-(cyclopropyldifluoromethyl)phenyl)carbamoyl)-5-methyl-1H-imidazole 3-oxide] | < 7.30 | > 9.00 | Inactive |
| Cc1cccc(C)c1-c1cc(-c2[nH]c(C)c(C(=O)Nc3cccc(C(F)(F)C4CC4)c3)[n+]2[O-])cc(C(C)O)c1 (stereo not drawn) [Compound 143, 4-((3-(cyclopropyldifluoromethyl)phenyl)carbamoyl)-2-(5-(1-hydroxyethyl)-2′,6′-dimethyl-[1,1′-biphenyl]-3-yl)-5-methyl-1H-imidazole 3-oxide] | 7.30 to 7.70 | > 9.00 | Inactive |
| CNc1cc(-c2c(C)cccc2C)cc(-c2[nH]c(C)c(C(=O)Nc3cccc(C(F)(F)C4CC4)c3)[n+]2[O-])c1 [Compound 147, 4-((3-(cyclopropyldifluoromethyl)phenyl)carbamoyl)-2-(2′,6′-dimethyl-5-(methylamino)-[1,1′-biphenyl]-3-yl)-5-methyl-1H-imidazole 3-oxide] | 7.30 to 7.70 | 7.52 to 9.00 | Inactive |
| CCC(F)(F)c1cccc(NC(=O)c2c(C)[nH]c(-c3cc(-c4c(C)cccc4C)c(OC)cn3)[n+]2[O-])c1 [Compound 157, 4-((3-(1,1-difluoropropyl)phenyl)carbamoyl)-2-(4-(2,6-dimethylphenyl)-5-methoxypyridin-2-yl)-5-methyl-1H-imidazole 3-oxide] | < 7.30 | > 9.00 | Inactive |

Further lines, results first:

| pIC50 [1] | pIC50 (human ACSS2 protein) | ACSS1 Biochemical IC50 (nM) (human ACSS1 protein) | SMILES |
| --- | --- | --- | --- |
| > 7.70 | > 9.00 | Inactive | CCC(F)(F)c1cccc(NC(=O)c2c(C)[nH]c(-c3cc(-c4c(C)cccc4C)c(OC)cc3O)[n+]2[O-])c1 [Compound 123, 4-((3-(1,1-difluoropropyl)phenyl)carbamoyl)-2-(4-hydroxy-6-methoxy-2′,6′-dimethyl-[1,1′-biphenyl]-3-yl)-5-methyl-1H-imidazole 3-oxide] |
| > 7.70 | > 9.00 | Inactive | CCC(F)(F)c1cccc(NC(=O)c2c(C)[nH]c(-c3cc(-c4c(C)cccc4C)c(OC)cc3F)[n+]2[O-])c1 [Compound 125, 4-((3-(1,1-difluoropropyl)phenyl)carbamoyl)-2-(4-fluoro-6-methoxy-2′,6′-dimethyl-[1,1′-biphenyl]-3-yl)-5-methyl-1H-imidazole 3-oxide] |
| 7.30 to 7.70 | > 9.00 | Inactive | CCC(F)(F)c1cccc(NC(=O)c2c(C)[nH]c(-c3ccc(OC)c(-c4c(Cl)cccc4Cl)c3)[n+]2[O-])c1 [Compound 126, 2-(2′,6′-dichloro-6-methoxy-[1,1′-biphenyl]-3-yl)-4-((3-(1,1-difluoropropyl)phenyl)carbamoyl)-5-methyl-1H-imidazole 3-oxide] |
| 7.30 to 7.70 | > 9.00 | Inactive | COc1cc(-c2c(C)cccc2C)cc(-c2[nH]c(C)c(C(=O)Nc3cccc(C(F)(F)C4CC4)c3)[n+]2[O-])c1 [Compound 131, 4-((3-(cyclopropyldifluoromethyl)phenyl)carbamoyl)-2-(5-methoxy-2′,6′-dimethyl-[1,1′-biphenyl]-3-yl)-5-methyl-1H-imidazole 3-oxide] |
| > 7.70 | > 9.00 | Inactive | CNC(=O)c1cccc(NC(=O)c2c(C)[nH]c(-c3ccc(OC)c(-c4c(C)cccc4C)c3)[n+]2[O-])c1 [Compound 146, 2-(6-methoxy-2′,6′-dimethyl-[1,1′-biphenyl]-3-yl)-5-methyl-4-((3-(methylcarbamoyl)phenyl)carbamoyl)-1H-imidazole 3-oxide] |
| > 7.70 | > 9.00 | Inactive | CCC(F)(F)c1cccc(NC(=O)c2c(C)[nH]c(-c3ccc(OC)c(-c4c(C)cccc4C)n3)[n+]2[O-])c1 [Compound 149, 4-((3-(1,1-difluoropropyl)phenyl)carbamoyl)-2-(6-(2,6-dimethylphenyl)-5-methoxypyridin-2-yl)-5-methyl-1H-imidazole 3-oxide] |
| > 7.70 | > 9.00 | Inactive | CCC(F)(F)c1cccc(NC(=O)c2c(C)[nH]c(-c3cc(CCN(C)C)c(OC)c(-c4c(C)cccc4C)c3)[n+]2[O-])c1 [Compound 169, 4-((3-(1,1-difluoropropyl)phenyl)carbamoyl)-2-(5-(2-(dimethylamino)ethyl)-6-methoxy-2′,6′-dimethyl-[1,1′-biphenyl]-3-yl)-5-methyl-1H-imidazole 3-oxide] |
